Data taken from US20210046085A1, “TREATMENT OF ADVANCED ESTROGEN RECEPTOR POSITIVE BREAST CANCER” (Pantarhei Oncology B.V., priority 2018, published 2021).
Like-named read-outs stand apart in the source and are kept apart here.

How the values were obtained:
[1] = molecular target: T1, SHBG (Homo sapiens, UniProt P04278); details: cited from earlier work
T1 sequence (P04278 30-402): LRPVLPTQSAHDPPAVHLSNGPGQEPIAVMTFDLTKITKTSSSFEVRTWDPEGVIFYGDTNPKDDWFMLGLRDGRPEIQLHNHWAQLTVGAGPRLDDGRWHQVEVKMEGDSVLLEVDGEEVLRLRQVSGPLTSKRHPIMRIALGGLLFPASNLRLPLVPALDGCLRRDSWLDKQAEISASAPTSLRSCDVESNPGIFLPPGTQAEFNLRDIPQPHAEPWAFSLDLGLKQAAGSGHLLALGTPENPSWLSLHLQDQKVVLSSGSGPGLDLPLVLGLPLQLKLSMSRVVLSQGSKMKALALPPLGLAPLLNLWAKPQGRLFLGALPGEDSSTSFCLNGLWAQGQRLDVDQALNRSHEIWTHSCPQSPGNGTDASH

[2] = tested on: long term estrogen deprived MCF7 breast cancer cells (LTED cells); test: Cell count in long term estrogen deprived MCF7 breast cancer cells (LTED cells); format: cell-based, human; details: for Cell number per well: cell count on Day 7
Description: LTED cells were plated in 6-well plates at a density of 30,000 cells per well. The cells were maintained in phenol red free IMEM with 5% charcoal stripped FBS (DCC-FBS). On Day 3, the medium was replaced with fresh phenol red free IMEM with 5% DCC-FBS. […] The final vehicle concentration was 0.1% ethanol for all experiments. Each treatment was done in duplicate.
On Day 5, the medium was changed and on Day 7 plates were subjected to a cell count analysis.

[3] = cited from earlier work
[4] = single oral dose of 12 mg, postmenopausal women, cited from earlier work
[5] = tested on: estrogen response element (ERE); details: breast cancer cells; cited from earlier work
[6] = tested on: T-47D cells; details: and higher (288 pg/ml); cited from earlier work
[7] = tested on: MCF-7 cells; details: and higher (288 pg/ml); cited from earlier work
[8] = Single dose pharmacokinetics study of oral estriol in postmenopausal women; format: in vivo, human; details: for concentration at 24 h / concentration at 48 h / concentration at 72 h: female, human, plasma, read-out: Average plasma level; for Average plasma level: 0-24 hours
Description: A single dose pharmacokinetics study was conducted to evaluate the pharmacokinetics of different oral dosages of estriol in postmenopausal women. In total 16 women were assigned to two different groups (Cohort A and Cohort B). Each Cohort received two estriol treatments. […] A wash-out period of 7 days was taken into account between the treatments.

[9] = cited from earlier work; remark: listed apart in the source

## C[C@]12CC[C@@H]3c4ccc(O)cc4CC[C@H]3[C@@H]1CC[C@@H]2O [estradiol, 17beta-estradiol]
[1]; Hammond GL et al., Climacteric 2008
  Binding to SHBG: about 40%

## C[C@]12CC[C@@H]3c4ccc(O)cc4CC[C@H]3[C@@H]1C[C@@H](O)[C@@H]2O [estriol, estra-1,3,5(10)-triene-3,16α,17β-triol]
[1]
  Binding to SHBG: does not bind to SHBG
[2]
  Growth of LTED cells (result in words): able to inhibit the growth of LTED cells
[2]; 10^−5 M estriol
  Cell number per well: 0.11 ×10^6
[2]; 10^−6 M estriol
  Cell number per well: 0.18 ×10^6
[2]; 10^−7 M estriol
  Cell number per well: 0.21 ×10^6
[2]; 10^−8 M estriol
  Cell number per well: 0.22 ×10^6
[2]; 10^−9 M estriol
  Cell number per well: 0.26 ×10^6
[2]; 10^−10 M estriol
  Cell number per well: 0.56 ×10^6
[2]; 10^−11 M estriol
  Cell number per well: 0.92 ×10^6
[2]; 10^−12 M estriol
  Cell number per well: 1.17 ×10^6
[2]; no significant further inhibition at higher concentrations
  Concentration at which peak inhibition is observed: 10^−9 M
[3]; oral administration of 6 mg estriol
  Peak levels: 80 to 220 pg/mL
[3]; oral administration of 12 mg
  Peak levels: 150 to 490 pg/mL
[4]; conversion of pmol/L value
  Initial increase in estriol levels: 144 to 288 pg/mL
[4]; lasted about four hours
  Initial increase in estriol levels: 500 to 1000 pmol/L
[5]
  Concentration at which effects on ERE activation were visible: 10^−10 M
[6]
  Concentration exerting a mitogenic effect: ≥ 10^−9 M
[7]
  Concentration exerting a mitogenic effect: ≥ 10^−9 M
[8]; oral dose 5 mg
  concentration at 24 h: 0.017 ± 0.011 ng/mL
  concentration at 48 h: 0.011 ± 0.015 ng/mL
  concentration at 72 h: 0.002 ± 0.006 ng/mL
  Average plasma level: 28 pg/mL
[8]; oral dose 10 mg
  concentration at 24 h: 0.047 ± 0.067 ng/mL
  concentration at 48 h: 0.012 ± 0.015 ng/mL
  concentration at 72 h: 0.001 ± 0.002 ng/mL
  Average plasma level: 39 pg/mL
[8]; oral dose 20 mg
  concentration at 24 h: 0.064 ± 0.041 ng/mL
  concentration at 48 h: 0.03 ± 0.01 ng/mL
  concentration at 72 h: 0.008 ± 0.012 ng/mL
  Average plasma level: 103 pg/mL
[8]; oral dose 40 mg
  concentration at 24 h: 0.121 ± 0.113 ng/mL
  concentration at 48 h: 0.052 ± 0.014 ng/mL
  concentration at 72 h: 0.013 ± 0.008 ng/mL
  Average plasma level: 110 pg/mL
[8]; high oral dose levels, postmenopausal women
  Tolerability: well tolerated
[8]; oral administration of 20 mg or 40 mg estriol
  Plasma levels of estriol after 72 hours: still significant after 72 hours
[8]; oral administration of estriol 5-40 mg
  Plasma levels of estriol over 24 hours: remained fairly constant over 24 hours
[8]; single oral dose 5-40 mg
  Plasma levels of estriol late after dosing: still measurable up to 72 hrs post dosing
  Time of second increase after dosing (enterohepatic circulation): 4 to 6 h
[8]; single oral dose 5-40 mg, approximately
  Time of peak levels after dosing: 1 to 2 h
[9]; Maturitas (1990), 12:171-197
  Half-life after oral administration: 9 to 10 h
[9]; Summary of Product Characteristics of Synapause
  Half-life after oral administration: 1.5 h
[9]; oral administration
  Conjugated in the intestine to glucuronides: 80-90%
  Conjugated in the intestine to sulfates: 10-20%
  Fraction that reaches the circulation: 1-2%
